Test results: patent publication US10080366B2, “Agent for increasing sugar content in fruit” (RIKEN, priority 2012, dated 2018)
Like-named read-outs stand apart in the source and are kept apart here.

Legend:
Tomato = conditions: 6 days after treatment
Mikan = conditions: 6 days after treatment
[1] = tested on: clusters of grape (variety: Crimson); assay: Estimated transpiration ratio of grape clusters (Example 9); assay type: in vivo; conditions: 10 g/L; 8 days after treatment
[2] = tested on: harvested fruit of grape (variety: Barikan)
Description: The fruit of grape was maintained in an air-conditioned greenhouse (temperature: 25° C.), and measured for the mass over time. The sugar content of the fruit was measured before the application and 8 days after the application with a sugar content meter. Next, on the assumption that the change in the mass of the fruit was entirely due to the change in water content, calculated values of the amount of decrease in mass and the sugar content on the date (June 2) of the application were determined […] by using the following calculation formula. (Calculated as follows: the sugar content (%) calculated value))=the sugar content (%) before application×the mass (g) on the date of application/the mass (g) on the date of measurement))

[3] = tested on: fruit of grape (variety: Red Globe)
Description: An agent for increasing a sugar content in a fruit (containing Sorbon T-20 as a spreader/sticker at a final concentration of 200 μL/L) diluted with water to have a potassium hydrogen carbonate concentration of 10 g/L was prepared. The mass of fruit of grape (variety: Red Globe) purchased on the market was measured. Then, the prepared agent for increasing a sugar content in a fruit was applied by spraying to the fruit of grape. Then, the fruit of grape was allowed to stand in an air-conditioned greenhouse (temperature: 25° C.), and the mass was measured over time (date of application: Apr. 27, 2011; dates of test: May 2, 2011, May 6, 2011, May 9, 2011, May 11, 2011, May 13, 2011, and May 16, 2011). In addition, as a control, the mass of untreated grape was measured on each date of measurement in the same manner.
On the basis of the measured mass, the estimated amount (cumulative value) of transpiration and the estimated amount of transpiration per day were calculated. The results are shown in Tables 5 and 6 and FIGS. 10 and 11.
Note that the vertical axis in FIG. 10 represents the mass (g) of the fruit of grape on each of the dates of measurement per 100 g of the fruit of grape on the date of application, and the vertical axis in FIG. 11 represents the estimated amount (g) of transpiration on each of the dates of measurement per 100 g of the fruit of grape on the date of application. The estimated amount (g) of transpiration on each of the dates of measurement per 100 g of the fruit of grape on the date of application=(the mass (g) of the fruit of grape on the date of application−the mass (g) of the fruit of grape on the date of measurement)/the mass of the fruit of grape on the date of application×100

[4] = 10 g/L, 25° C., mass 100 g on date of application

## CC(=O)[O-].[Na+] [Sodium acetate, sodium acetate]
Tomato; dilution ratio 50 (20 g/L)
  Ratio (%) of decrease in body weight of fruit: 14.5%
Tomato; dilution ratio 100 (10 g/L)
  Ratio (%) of decrease in body weight of fruit: 15.6%
Mikan; dilution ratio 50 (20 g/L)
  Ratio (%) of decrease in body weight of fruit: 11.4%
Mikan; dilution ratio 100 (10 g/L)
  Ratio (%) of decrease in body weight of fruit: 11.2%

## N.N.O=S(=O)(O)O [Ammonium sulfate, reference compound]
[1]
  Estimated transpiration ratio (%) Average: 22%
  Estimated transpiration ratio (%) First: 21%
  Estimated transpiration ratio (%) Second: 23%

## O=P([O-])([O-])O.[K+].[K+] [Dipotassium hydrogen phosphate, dipotassium hydrogen phosphate]
[1]
  Estimated transpiration ratio (%) Average: 28%
  Estimated transpiration ratio (%) First: 28%

## CC(=O)[O-].[K+] [Potassium acetate, potassium acetate]
[1]
  Estimated transpiration ratio (%) Average: 35%
  Estimated transpiration ratio (%) First: 35%
  Estimated transpiration ratio (%) Second: 35%

## CC(O)C(=O)[O-].[Na+] (racemic) [DL-Sodium lactate, reference compound]
[1]
  Estimated transpiration ratio (%) Average: 26%
  Estimated transpiration ratio (%) First: 26%
  Estimated transpiration ratio (%) Second: 25%

## [Ca+2].[Cl-].[Cl-] [Calcium chloride, reference compound]
[2]; 10 g/L, 25° C.
  Sugar content (%) 8 days later, actually measured value: 20.0%
[2]; [4]
  Mass (g) 6 days later (Jun. 8): 86.3 g
  Mass (g) 8 days later (Jun. 10): 81.9 g
[2]; 10 g/L, 8 days
  action to increase the sugar content in the fruit (comparison): almost the same as that of the untreated group
[2]; 10 g/L, calculated from decrease in mass
  Sugar content (%) 8 days later, calculated value: 20.8%
[2]; before application
  Sugar content (%) on date of application (Jun. 2): 17.0%

## O=C([O-])[O-].[Na+].[Na+] [Sodium carbonate, sodium carbonate]
Tomato; dilution ratio 100 (10 g/L)
  Ratio (%) of decrease in body weight of fruit: 12.7%
[1]
  Estimated transpiration ratio (%) Average: 32%
  Estimated transpiration ratio (%) First: 32%
[3]; 5 days later
  Estimated amount (g) of transpiration per 100 g of fruit on date of application: 14.1 g
[3]; 5 days later (applied Apr. 27)
  Mass (g) of fruit per 100 g of fruit on date of application: 85.9 g
[3]; 9 days later
  Estimated amount (g) of transpiration per 100 g of fruit on date of application: 24.1 g
  Mass (g) of fruit per 100 g of fruit on date of application: 75.9 g
[3]; 12 days later
  Estimated amount (g) of transpiration per 100 g of fruit on date of application: 30.3 g
  Mass (g) of fruit per 100 g of fruit on date of application: 69.7 g
[3]; 14 days later
  Estimated amount (g) of transpiration per 100 g of fruit on date of application: 34.6 g
  Mass (g) of fruit per 100 g of fruit on date of application: 65.4 g
[3]; 16 days later
  Estimated amount (g) of transpiration per 100 g of fruit on date of application: 38.7 g
  Mass (g) of fruit per 100 g of fruit on date of application: 61.3 g
[3]; 19 days later
  Estimated amount (g) of transpiration per 100 g of fruit on date of application: 44.5 g
  Mass (g) of fruit per 100 g of fruit on date of application: 55.5 g
Mikan; dilution ratio 100 (10 g/L)
  Ratio (%) of decrease in body weight of fruit: 10.4%

## O=S(=O)([O-])[O-].[K+].[K+] [Potassium sulfate, reference compound]
[1]
  Estimated transpiration ratio (%) Average: 24%
  Estimated transpiration ratio (%) First: 24%

## O=C([O-])O.[Na+] [Sodium hydrogen carbonate, sodium hydrogen carbonate]
Tomato; dilution ratio 100 (10 g/L)
  Ratio (%) of decrease in body weight of fruit: 12.8%
[1]
  Estimated transpiration ratio (%) Average: 30%
  Estimated transpiration ratio (%) First: 33%
  Estimated transpiration ratio (%) Second: 28%
[3]; 5 days later
  Estimated amount (g) of transpiration per 100 g of fruit on date of application: 12.4 g
[3]; 5 days later (applied Apr. 27)
  Mass (g) of fruit per 100 g of fruit on date of application: 87.6 g
[3]; 9 days later
  Estimated amount (g) of transpiration per 100 g of fruit on date of application: 21.7 g
  Mass (g) of fruit per 100 g of fruit on date of application: 78.3 g
[3]; 12 days later
  Estimated amount (g) of transpiration per 100 g of fruit on date of application: 27.3 g
  Mass (g) of fruit per 100 g of fruit on date of application: 72.7 g
[3]; 14 days later
  Estimated amount (g) of transpiration per 100 g of fruit on date of application: 31.5 g
  Mass (g) of fruit per 100 g of fruit on date of application: 68.5 g
[3]; 16 days later
  Estimated amount (g) of transpiration per 100 g of fruit on date of application: 35.6 g
  Mass (g) of fruit per 100 g of fruit on date of application: 64.4 g
[3]; 19 days later
  Estimated amount (g) of transpiration per 100 g of fruit on date of application: 41.5 g
  Mass (g) of fruit per 100 g of fruit on date of application: 58.5 g
Mikan; dilution ratio 100 (10 g/L)
  Ratio (%) of decrease in body weight of fruit: 11.4%

## O=C([O-])C(O)C(O)C(=O)[O-].[K+].[K+] (racemic) [DL-Potassium tartrate, reference compound]
[1]
  Estimated transpiration ratio (%) Average: 22%
  Estimated transpiration ratio (%) First: 22%

## O=P([O-])([O-])[O-].[K+].[K+].[K+] [Tripotassium phosphate, tripotassium phosphate]
[3]; 5 days later
  Estimated amount (g) of transpiration per 100 g of fruit on date of application: 15.9 g
[3]; 5 days later (applied Apr. 27)
  Mass (g) of fruit per 100 g of fruit on date of application: 84.1 g
[3]; 9 days later
  Estimated amount (g) of transpiration per 100 g of fruit on date of application: 26.3 g
  Mass (g) of fruit per 100 g of fruit on date of application: 73.7 g
[3]; 12 days later
  Estimated amount (g) of transpiration per 100 g of fruit on date of application: 33.1 g
  Mass (g) of fruit per 100 g of fruit on date of application: 66.9 g
[3]; 14 days later
  Estimated amount (g) of transpiration per 100 g of fruit on date of application: 37.6 g
  Mass (g) of fruit per 100 g of fruit on date of application: 62.4 g
[3]; 16 days later
  Estimated amount (g) of transpiration per 100 g of fruit on date of application: 41.1 g
  Mass (g) of fruit per 100 g of fruit on date of application: 58.3 g
[3]; 19 days later
  Estimated amount (g) of transpiration per 100 g of fruit on date of application: 47.4 g
  Mass (g) of fruit per 100 g of fruit on date of application: 52.8 g

## O=P([O-])([O-])O.[Na+].[Na+] [Disodium hydrogen phosphate, disodium hydrogen phosphate]
[1]
  Estimated transpiration ratio (%) Average: 31%
  Estimated transpiration ratio (%) First: 35%
  Estimated transpiration ratio (%) Second: 28%

## O=C([O-])[O-].[Mg+2] [Magnesium carbonate, magnesium carbonate]
[1]
  Estimated transpiration ratio (%) Average: 32%
  Estimated transpiration ratio (%) First: 32%

## [Cl-].[Cl-].[Mg+2] [Magnesium chloride, reference compound]
[1]
  Estimated transpiration ratio (%) Average: 25%
  Estimated transpiration ratio (%) First: 25%

## N.N.O=C(O)O [Ammonium carbonate, reference compound]
[1]
  Estimated transpiration ratio (%) Average: 26%
  Estimated transpiration ratio (%) First: 25%
  Estimated transpiration ratio (%) Second: 28%

## O=C([O-])CC(O)(CC(=O)[O-])C(=O)[O-].[K+].[K+].[K+] [Tripotassium citrate]
[1]
  Estimated transpiration ratio (%) Average: 30%
  Estimated transpiration ratio (%) First: 32%
  Estimated transpiration ratio (%) Second: 28%

## O=S(=O)([O-])[O-].[Mg+2] [Magnesium sulfate, reference compound]
[1]
  Estimated transpiration ratio (%) Average: 23%
  Estimated transpiration ratio (%) First: 23%

## [Cl-].[Na+] [Sodium chloride, reference compound]
[1]
  Estimated transpiration ratio (%) Average: 22%
  Estimated transpiration ratio (%) First: 22%

## CC(=O)[O-].O.O.O.[Na+] [Sodium acetate trihydrate]
[1]
  Estimated transpiration ratio (%) Average: 34%
  Estimated transpiration ratio (%) First: 35%
  Estimated transpiration ratio (%) Second: 33%

## O=C([O-])CCC(=O)[O-].[Na+].[Na+] [Disodium succinate]
[1]
  Estimated transpiration ratio (%) Average: 31%
  Estimated transpiration ratio (%) First: 31%

## [Cl-].[K+] [Potassium chloride, reference compound]
[1]
  Estimated transpiration ratio (%) Average: 25%
  Estimated transpiration ratio (%) First: 25%
